Experiments:
Format in all cases: in vivo
[1] = test system: giant foxtail (Setaria faberii); test: Test A postemergence
Method in brief: (§1)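 Compounds were formulated in a non-phytotoxic solvent mixture with surfactant and applied as a preemergence directed soil spray after seeding, or sprayed postemergence over plants 2 to 10 cm tall at the one- to two-leaf stage. Evaluation after about 10 d compared treated with untreated controls, using a scale from 0 (no effect) to 100 (complete control).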

[2] = test system: Kochia (Kochia scoparia); test: Test A postemergence
Method in brief: as §1

[3] = test system: barnyardgrass (Echinochloa crus-galli); test: Test A postemergence
Method in brief: as §1

[4] = test system: pigweed (Amaranthus retroflexus); test: Test A postemergence
Method in brief: as §1

[5] = test system: wheat (Triticum aestivum); test: Test A postemergence
Method in brief: as §1

[6] = test system: corn (Zea mays); test: Test A postemergence
Method in brief: as §1

[7] = test system: blackgrass (Alopecurus myosuroides); test: Test A postemergence
Method in brief: as §1

[8] = test system: ragweed (common ragweed, Ambrosia elatior); test: Test A postemergence
Method in brief: as §1

[9] = test system: ryegrass, Italian (Italian ryegrass, Lolium multiflorum); test: Test A postemergence
Method in brief: as §1

[10] = test system: Galium (catchweed bedstraw, Galium aparine); test: Test A postemergence
Method in brief: as §1

[11] = test system: giant foxtail (Setaria faberii); test: Test A preemergence
Method in brief: as §1

[12] = test system: Kochia (Kochia scoparia); test: Test A preemergence
Method in brief: as §1

[13] = test system: barnyardgrass (Echinochloa crus-galli); test: Test A preemergence
Method in brief: as §1

[14] = test system: pigweed (Amaranthus retroflexus); test: Test A preemergence
[15] = test system: ragweed (common ragweed, Ambrosia elatior); test: Test A preemergence
Method in brief: as §1

[16] = test system: ryegrass, Italian (Italian ryegrass, Lolium multiflorum); test: Test A preemergence
Method in brief: as §1

[17] = test system: barnyardgrass (Echinochloa crus-galli); test: Test B flooded paddy test; settings: Flood, 250 g ai/ha; 0 to 100 scale where 0 is no effect and 100 is complete control; 13 to 15 d
Method in brief: (§2)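 Greenhouse paddy pots with 2-leaf stage plants received compound by direct addition to floodwater 3 cm deep, kept at that level. Scored visually at 13–15 d versus controls (0 no effect; 100 complete control).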

[18] = test system: ducksalad (Heteranthera limosa); test: Test B flooded paddy test; settings: Flood, 250 g ai/ha; 0 to 100 scale where 0 is no effect and 100 is complete control; 13 to 15 d
Method in brief: as §2

[19] = test system: rice (Oryra sativa); test: Test B flooded paddy test; settings: Flood, 250 g ai/ha; 0 to 100 scale where 0 is no effect and 100 is complete control; 13 to 15 d
Method in brief: as §2

[20] = test system: sedge, umbrella (small-flower umbrella sedge, Cyperus difformis); test: Test B flooded paddy test; settings: Flood, 250 g ai/ha; 0 to 100 scale where 0 is no effect and 100 is complete control; 13 to 15 d
Method in brief: as §2

[21] = 125 g ai/ha, postemergence, visual rating after approx. 10 d, 0 to 100 scale (0 no effect, 100 complete control)
[22] = Postemergence, 500 g ai/ha, 0 to 100 scale where 0 is no effect and 100 is complete control
[23] = 125 g ai/ha, Preemergence, visual injury after approximately 10 d, 0 to 100 scale where 0 is no effect and 100 is complete control
[24] = 500 g ai/ha, preemergence, 0 to 100 scale, 0 = no effect, 100 = complete control
[25] = 500 g ai/ha, postemergence, visual injury, 0 to 100 scale (0 no effect, 100 complete control), approx. 10 d
[26] = 125 g ai/ha, postemergence, visual injury rating on 0 to 100 scale (0 no effect, 100 complete control), approx. 10 d
[27] = 500 g ai/ha, postemergence, 0 to 100 scale, 0 no effect, 100 complete control
[28] = 125 g ai/ha, preemergence, 0 to 100 scale (0 no effect, 100 complete control)
[29] = Preemergence, 500 g ai/ha, visual injury approx. 10 d

Question: Which results are given for `CN1CC(c2ccc(C(F)(F)F)cc2)C(C(=O)Nc2ccc(F)cc2F)C1=O` (stereo not drawn) [Compound 625]?
Answer: Plant response rating, Foxtail, Giant [1, 21]: 90; Plant response rating, Foxtail, Giant [1, 22]: 90; Plant response rating, Kochia [2, 21]: 30; Plant response rating, Kochia [2, 22]: 50; Plant response rating, Barnyardgrass [3, 21]: 80; Plant response rating, Barnyardgrass [3, 22]: 90; Plant response rating, Pigweed [4, 21]: 20; Plant response rating, Pigweed [4, 22]: 50; Plant response rating, Wheat [5, 21]: 0; Plant response rating, Wheat [5, 22]: 50; Plant response rating, Corn [6, 21]: 10; Plant response rating, Corn [6, 22]: 50; Plant response rating, Blackgrass [7, 21]: 30; Plant response rating, Blackgrass [7, 22]: 40; Plant response rating, Ragweed [8, 21]: 0; Plant response rating, Ragweed [8, 22]: 20; Plant response rating, Ryegrass, Italian [9, 21]: 20; Plant response rating, Ryegrass, Italian [9, 22]: 30; Plant response rating, Galium [10, 21]: 30; Plant response rating, Galium [10, 22]: 60; Plant response rating, Foxtail, Giant [11, 23]: 90; Plant response rating, Foxtail, Giant [11, 24]: 90; Plant response rating, Kochia [12, 23]: 50; Plant response rating, Kochia [12, 24]: 80; Plant response rating, Barnyardgrass [13, 23]: 80; Plant response rating, Barnyardgrass [13, 24]: 90; Plant response rating, Pigweed [14, 23]: 50; Plant response rating, Pigweed [14, 24]: 90; Plant response rating, Ragweed [15, 23]: 20; Plant response rating, Ragweed [15, 24]: 60; Plant response rating, Ryegrass, Italian [16, 23]: 30; Plant response rating, Ryegrass, Italian [16, 24]: 50; Plant response rating, Barnyardgrass [17]: 40; Plant response rating, Ducksalad [18]: 100; Plant response rating, Rice [19]: 0; Plant response rating, Sedge, Umbrella [20]: 0

Question: For `CN1CC(c2cc(F)cc(F)c2)C(C(=O)Nc2ccccc2C(F)(F)F)C1=O` (stereo not drawn) [Compound 647], which “Plant response rating, Foxtail, Giant” value [1, 21] is on record?
Answer: 90

Question: And the “Plant response rating, Foxtail, Giant” value [1, 25]?
Answer: 90

Question: What about the “Plant response rating, Kochia” value [2, 21] of the same compound?
Answer: 0

Question: What about the “Plant response rating, Kochia” value [2, 25] of the same compound?
Answer: 20

Question: What about the “Plant response rating, Barnyardgrass” value [3, 21] of the same compound?
Answer: 80

Question: And the “Plant response rating, Barnyardgrass” value [3, 25]?
Answer: 90

Question: What about the “Plant response rating, Pigweed” value [4, 21] of the same compound?
Answer: 0

Question: What about the “Plant response rating, Pigweed” value [4, 25] of the same compound?
Answer: 0

Question: And the “Plant response rating, Wheat” value [5, 21]?
Answer: 20

Question: What about the “Plant response rating, Wheat” value [5, 25] of the same compound?
Answer: 50

Question: What about the “Plant response rating, Corn” value [6, 21] of the same compound?
Answer: 10

Question: And the “Plant response rating, Corn” value [6, 25]?
Answer: 40

Question: And the “Plant response rating, Blackgrass” value [7, 21]?
Answer: 20

Question: And the “Plant response rating, Blackgrass” value [7, 25]?
Answer: 60

Question: What about the “Plant response rating, Ragweed” value [8, 21] of the same compound?
Answer: 0

Question: And the “Plant response rating, Ragweed” value [8, 25]?
Answer: 10

Question: What about the “Plant response rating, Ryegrass, Italian” value [9, 21] of the same compound?
Answer: 0

Question: What about the “Plant response rating, Ryegrass, Italian” value [9, 25] of the same compound?
Answer: 0

Question: What about the “Plant response rating, Galium” value [10, 21] of the same compound?
Answer: 20

Question: What about the “Plant response rating, Galium” value [10, 25] of the same compound?
Answer: 50

Question: And the “Plant response rating, Foxtail, Giant” value [11, 23]?
Answer: 90

Question: What about the “Plant response rating, Foxtail, Giant” value [11, 24] of the same compound?
Answer: 100

Question: What about the “Plant response rating, Kochia” value [12, 23] of the same compound?
Answer: 0

Question: What about the “Plant response rating, Kochia” value [12, 24] of the same compound?
Answer: 0

Question: And the “Plant response rating, Barnyardgrass” value [13, 23]?
Answer: 90

Question: What about the “Plant response rating, Barnyardgrass” value [13, 24] of the same compound?
Answer: 90

Question: And the “Plant response rating, Pigweed” value [14, 23]?
Answer: 0

Question: What about the “Plant response rating, Pigweed” value [14, 24] of the same compound?
Answer: 60

Question: And the “Plant response rating, Ragweed” value [15, 23]?
Answer: 0

Question: And the “Plant response rating, Ragweed” value [15, 24]?
Answer: 40

Question: What about the “Plant response rating, Ryegrass, Italian” value [16, 23] of the same compound?
Answer: 30

Question: And the “Plant response rating, Ryegrass, Italian” value [16, 24]?
Answer: 30

Question: And the “Plant response rating, Barnyardgrass” value [17]?
Answer: 75

Question: What about the “Plant response rating, Ducksalad” value [18] of the same compound?
Answer: 90

Question: And the “Plant response rating, Rice” value [19]?
Answer: 40

Question: What about the “Plant response rating, Sedge, Umbrella” value [20] of the same compound?
Answer: 0

Question: Which results are given for `O=C1NCC(c2ccc(Br)cc2)C1C(=O)Nc1cccc(F)c1` (stereo not drawn) [Compound 449]?
Answer: Foxtail, Giant plant response rating [1, 26]: 30; Plant response rating, Foxtail, Giant [1, 27]: 80; Kochia plant response rating [2, 26]: 20; Plant response rating, Kochia [2, 27]: 40; Barnyardgrass plant response rating [3, 26]: 30; Plant response rating, Barnyardgrass [3, 27]: 80; Pigweed plant response rating [4, 26]: 0; Plant response rating, Pigweed [4, 27]: 20; Wheat plant response rating [5, 26]: 0; Plant response rating, Wheat [5, 27]: 0; Corn plant response rating [6, 26]: 0; Plant response rating, Corn [6, 27]: 0; Blackgrass plant response rating [7, 26]: 0; Plant response rating, Blackgrass [7, 27]: 20; Ragweed plant response rating [8, 26]: 0; Plant response rating, Ragweed [8, 27]: 0; Ryegrass, Italian plant response rating [9, 26]: 0; Plant response rating, Ryegrass, Italian [9, 27]: 20; Galium plant response rating [10, 26]: 0; Plant response rating, Galium [10, 27]: 50; Plant response rating, Foxtail, Giant [11, 28]: 80; Foxtail, Giant plant response rating (0 to 100 scale, 0 is no effect, 100 is complete control) [11, 29]: 90; Plant response rating, Kochia [12, 28]: 20; Kochia plant response rating (0 to 100 scale, 0 is no effect, 100 is complete control) [12, 29]: 40; Plant response rating, Barnyardgrass [13, 28]: 50; Barnyardgrass plant response rating (0 to 100 scale, 0 is no effect, 100 is complete control) [13, 29]: 90; Plant response rating, Pigweed [14, 28]: 0; Pigweed plant response rating (0 to 100 scale, 0 is no effect, 100 is complete control) [14, 29]: 20; Plant response rating, Ragweed [15, 28]: 0; Ragweed plant response rating (0 to 100 scale, 0 is no effect, 100 is complete control) [15, 29]: 0; Plant response rating, Ryegrass, Italian [16, 28]: 20; Ryegrass, Italian plant response rating (0 to 100 scale, 0 is no effect, 100 is complete control) [16, 29]: 0; Plant response rating, Barnyardgrass [17]: 40; Plant response rating, Ducksalad [18]: 98; Plant response rating, Rice [19]: 0; Plant response rating, Sedge, Umbrella [20]: 0

From patent US12077503B2, “Substituted cyclic amides and their use as herbicides” (FMC CORPORATION, priority 2015, dated 2024)
